The source of these data is US10246442B2, “4-Aminoquinazolin compounds as prolyl hydroxylase inhibitors” (JANSSEN PHARMACEUTICA NV, priority 2011, dated 2019).

One test concerns the target PHD2181-417 (Homo sapiens (Human), UniProt Q9GZT9). Kind of test: PHD enzymatic assay ([14C]-succinic acid production). The test is classed as biochemical. Particulars: purified PHD2181-417, HIF-1α peptide substrate, 30 min pre-incubation, average of results. As for the experimental part:
Expression and Purification of PHD2181-417
The human PHD2 expression construct containing amino acids 181-417 of GenBank Accession ID NM_022051 was cloned into a pBAD vector (Invitrogen), incorporating both an N-terminal histidine tag and a Smt3-tag, both of which are cleaved by Ulp1. Protein production was achieved by expression in BL21 cells grown in Terrific Broth containing 100 μg/ml ampicillin. Cell cultures were inoculated at 37° C. and grown to an OD600 of 0.8. Cultures were induced with 0.1% arabinose and grown overnight at 20° C. with continuous shaking at 225 rpm. Cells were then harvested by centrifugation and stored at −80° C. Cell pellets were suspended in Buffer A (50 mM Tris-HCl pH 7.2, 100 mM NaCl, 100 mM L-arginine, 1 mM TCEP, 0.05% (w/v) NP-40, 50 mM imidazole) followed by the addition of lysozyme and benzonase. Cells were lysed by sonication and the lysate was cleared by centrifugation (15,000 rpm, 90 min, 4° C.). The protein was purified by nickel affinity chromatography using a HisTrap Crude FF column (GE Healthcare). Samples were eluted in Buffer A with a 50-200 mM imidazole gradient. Cleavage of the Smt tag with Ulp1 protease was achieved via overnight incubation with dialyzing against Buffer A. The PHD2181-417 sample was then passed over a second HisTrap Crude FF column (GE Healthcare) to remove uncleaved protein. The flow-through was then dialyzed into 50 mM MES pH 6.0, 1 mM TCEP, 5 mM NaCl for ion exchange chromatography on a HiTrap SP Cation Exchange column (GE Healthcare). The PHD2181-417 protein was eluted with a 0-0.2 M NaCl gradient. Fractions were pooled for further purification by size exclusion chromatography over a Superdex 75 Size Exclusion Column (GE Healthcare). Final protein was concentrated to 4 mg/ml and dialyzed in 10 mM PIPES pH 7.0, 100 mM NaCl, 0.5 mM TCEP.
(10 μM, California Peptide Research Inc., Napa, Calif.), and [5-^14C]-2-oxoglutaric acid (50 mCi/mmol, Moravek Chemicals, Brea, Calif.) in reaction buffer (40 mM Tris-HCl, pH 7.5, 0.4 mg/ml catalase, 0.5 mM DTT, 1 mM ascorbate) for 10 minutes. Compounds were pre-incubated for 30 min before starting the reaction (all test compounds were dissolved at 10 mM in 100% DMSO (w/v) and were tested with final compound concentrations at 100 μM in 1% DMSO (w/v)). The reaction was stopped by addition of 50 μl of 70 mM H3PO4 and 50 μl of 500 mM NaH2PO4, pH 3.2. Detection of [^14C]-succinic acid was achieved by separating from [5-^14C]-2-oxoglutaric acid by incubating the reaction mixture with 100 μl of 0.16 M DNP prepared in 30% perchloric acid. Next, 50 μl of unlabeled 20 mM 2-oxoglutaric acid/20 mM succinic acid, serving as carrier for the radioactivity, was added to the mixture, and was allowed to proceed for 30 minutes at room temperature. The reaction was then incubated with 50 μl of 1 M 2-oxoglutaric acid for 30 additional minutes at room temperature to precipitate the excess DNP. The reaction was then centrifuged at 2800×g for 10 minutes at room temperature to separate [^14C]-succinic acid in the supernatant from the precipitated [^14C]-dinitrophenylhydrazone. Fractions of the supernatant (400 μI) were counted using a beta counter (Beckman Coulter, Fullerton, Calif.). Inhibition of PHD2181-417 activity was measured as a decrease in succinic acid production. The IC50 values were estimated by fitting the data to a three-parameter logistic function using GraphPad Prism, version 4.02 (Graph Pad Software, San Diego, Calif.).

Test [1] has as its system Erythropoietin secretion, Hep-3B cells. Kind of test: Cellular assay: EPO secretion in Hep-3B cells. Particulars: Homo sapiens, Hep3B, 100 μM compound, 24 hours, percent of EPO secretion relative to assay control compound 7-[(4-Chloro-phenyl)-(5-methyl-isoxazol-3-ylamino)-methyl]-quinolin-8-ol, read-out: Cellular % EPO Stimulation. In kind it is cell-based. The protocol:
Hep-3B cells (ATCC, Manassas, Va.) were plated in 96-well plates at 20,000 cells per well in 100 μl of DMEM containing 10% fetal bovine serum, 1% non-essential amino acids, 50 IU/mL of penicillin and 50 μg/mL of streptomycin (all cell culture reagents from Invitrogen, Carlsbad, Calif.). Twenty-four hours after plating, compounds were added and incubated for an additional 24 hours. All compounds were tested with final compound concentrations at 100 μM. Fifty microliters of the supernatant was then transferred to a human Hypoxia assay kit (Meso-Scale Discovery, Gaithersburg, Md.). Erythropoietin in the supernatant was detected according to the manufacturer's instructions as follows. EPO detection plates were blocked with 3% BSA in PBS overnight and 50 μl of the supernatant was incubated at room temperature in an orbital shaker for 2 h. Twenty-five microliters of 0.5 μg/ml anti-EPO detection antibody was added for 2 hours at room temperature in an orbital shaker. After 3 washes in PBS, 150 μl of 1× read buffer is added and the plate is then read on the MSD SECTOR instrument. Data was analyzed by determining the percent of EPO secretion in the presence of 100 μM compound relative to an assay control compound, 7-[(4-Chloro-phenyl)-(5-methyl-isoxazol-3-ylamino)-methyl]-quinolin-8-ol.

PHD2181-417, sequence (Q9GZT9 181-417): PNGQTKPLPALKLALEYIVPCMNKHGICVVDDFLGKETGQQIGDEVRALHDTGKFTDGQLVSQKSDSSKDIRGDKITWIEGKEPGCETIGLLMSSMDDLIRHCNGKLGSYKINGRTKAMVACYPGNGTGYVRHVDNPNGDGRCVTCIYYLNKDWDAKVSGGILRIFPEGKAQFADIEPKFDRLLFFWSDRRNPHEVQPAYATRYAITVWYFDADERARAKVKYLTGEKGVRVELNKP

In the case of `N#CNc1nc(-n2cc(C(=O)O)cn2)nc2ccc(C3CCCCC3)cc12` [Example 35, 1-(4-Cyanamido-6-cyclohexylquinazolin-2-yl)-1H-pyrazole-4-carboxylic acid], on PHD2181-417, the “Enzyme pIC50” value is on record as 7.2. Moreover, the activation at 100 µM in test [1] came out at 67%. `COCC(C)Nc1nc(-n2cc(C(=O)O)cn2)nc2cc(F)c(Oc3c(C)cccc3C)cc12` (racemic) [Example 9, (rac)-1-[6-(2,6-Dimethyl-phenoxy)-7-fluoro-4-(2-methoxy-1-methyl-ethylamino)-quinazolin-2-yl]-1H-pyrazole-4-carboxylic acid]: at PHD2181-417 (read-out: Enzyme pIC50 (converted)), the IC50 was 79.4 nM. In test [1], the activation at 100 µM was 86%. In the case of `CN(C)c1nc(-n2cc(C(=O)O)cn2)nc2ccc(Cc3ccccc3)cc12` [Example 179, 1-(6-benzyl-4-(dimethylamino)quinazolin-2-yl)-1H-pyrazole-4-carboxylic acid], at PHD2181-417, the “Enzyme pIC50” value is listed as 7.1. On the same count and under the same terms, the same measure for `O=C(O)c1cnn(-c2nc(N3CCOCC3)c3cc(Cc4ccccc4)ccc3n2)c1` [Example 178, 1-(6-benzyl-4-morpholinoquinazolin-2-yl)-1H-pyrazole-4-carboxylic acid]: 6.5.

For the molecule `Cc1cccc(C)c1Oc1cc2c(N)nc(-n3cc(C(=O)O)cn3)nc2cc1F` [Example 1, 1-[4-Amino-6-(2,6-dimethyl-phenoxy)-7-fluoro-quinazolin-2-yl]-1H-pyrazole-4-carboxylic acid], the activation at 100 µM in test [1] was found to be 51%. Take `Cc1cccc(C)c1Oc1cc2c(NCC3CCCCC3)nc(-n3cc(C(=O)O)cn3)nc2cc1F` [Example 13, 1-(4-((Cyclohexylmethyl)amino)-6-(2,6-dimethylphenoxy)-7-fluoroquinazolin-2-yl)-1H-pyrazole-4-carboxylic acid]: the “Enzyme pIC50” value at PHD2181-417 worked out at 6.9. In test [1], the activation at 100 µM worked out at 10%. For `Cc1cccc(C)c1Oc1cc2c(NC3CC3)nc(-n3cc(C(=O)O)cn3)nc2cc1F` [Example 14, 1-((4-Cyclopropylamino)-6-(2,6-dimethylphenoxy)-7-fluoroquinazolin-2-yl)-1H-pyrazole-4-carboxylic acid], the “Enzyme pIC50” value at PHD2181-417 is reported as 7.1. Besides, in test [1], the activation at 100 µM turned out to be 86%. In the case of `Cc1cccc(C)c1Oc1cc2c(N3CCCC3)nc(-n3cc(C(=O)O)cn3)nc2cc1F` [Example 5, 1-[6-(2,6-Dimethyl-phenoxy)-7-fluoro-4-pyrrolidin-1-yl-quinazolin-2-yl]-1H-pyrazole-4-carboxylic acid], the “Enzyme pIC50” value on PHD2181-417 was found to be 7.4. The activation at 100 µM in test [1] came out at 25%.

`CCN(CC)c1nc(-n2cc(C(=O)O)cn2)nc2ccc(OC3CCCCC3)cc12` [Example 174, 1-(6-(cyclohexyloxy)-4-(diethylamino)quinazolin-2-yl)-1H-pyrazole-4-carboxylic acid]: the activation at 100 µM in test [1] amounted to 35%. The same measure, in the same setting: the figure for `O=C(O)c1cnn(-c2nc(N3CCCC3)c3cc(OC4CCCCC4)ccc3n2)c1` [Example 175, 1-(6-(cyclohexyloxy)-4-(pyrrolidin-1-yl)quinazolin-2-yl)-1H-pyrazole-4-carboxylic acid] is 46%. With `Cc1cccc(C)c1CNc1nc(-n2cc(C(=O)O)cn2)nc2ccc(C3CCCCC3)cc12` [Example 23, 1-[6-Cyclohexyl-4-(2,6-dimethyl-benzylamino)-quinazolin-2-yl]-1H-pyrazole-4-carboxylic acid], the activation at 100 µM in test [1] was 7%. As to `O=C(O)c1cnn(-c2nc(N3CCCC3)c3cc(OC4CCCCC4)c(Cl)cc3n2)c1` [Example 139, 1-(7-chloro-6-(cyclohexyloxy)-4-(pyrrolidin-1-yl)quinazolin-2-yl)-1H-pyrazole-4-carboxylic acid], the “Enzyme pIC50” value on PHD2181-417 was 7.1. In the case of `O=C(O)c1cnn(-c2nc(NC3CC3)c3cc(OC4CCCCC4)c(Cl)cc3n2)c1` [Example 141, 1-(7-chloro-6-(cyclohexyloxy)-4-(cyclopropylamino)quinazolin-2-yl)-1H-pyrazole-4-carboxylic acid], the “Enzyme pIC50” value at PHD2181-417 came to 7.0. Still for that read-out and setting: the figure for `CCN(CC)c1nc(-n2cc(C(=O)O)cn2)nc2cc(Cl)c(OC3CCCCC3)cc12` [Example 138, 1-(7-chloro-6-(cyclohexyloxy)-4-(diethylamino)quinazolin-2-yl)-1H-pyrazole-4-carboxylic acid] is 7.5. Take `CCN(C)c1nc(-n2cc(C(=O)O)cn2)nc2ccc(Cc3ccccc3)cc12` [Example 183, 1-(6-benzyl-4-(ethyl(methyl)amino)quinazolin-2-yl)-1H-pyrazole-4-carboxylic acid]: the “Enzyme pIC50” value at PHD2181-417 stood at 7.2.

As to `Cc1cccc(C)c1Oc1cc2c(NCC3CC3)nc(-n3cc(C(=O)O)cn3)nc2cc1F` [Example 15, 1-((4-Cyclopropanemethylamino)-6-(2,6-dimethylphenoxy)-7-fluoroquinazolin-2-yl)-1H-pyrazole-4-carboxylic acid], in test [1], the activation at 100 µM was determined as 64%. As for `O=C(O)c1cnn(-c2nc(N3CCCC3)c3cc(Cc4ccccc4)ccc3n2)c1` [Example 181, 1-(6-benzyl-4-(pyrrolidin-1-yl)quinazolin-2-yl)-1H-pyrazole-4-carboxylic acid], at PHD2181-417, the “Enzyme pIC50” value was found to be 7.1. As to `O=C(O)c1cnn(-c2nc(NC3CC3)c3cc(Cc4ccccc4)ccc3n2)c1` [Example 182, 1-(6-benzyl-4-(cyclopropylamino)quinazolin-2-yl)-1H-pyrazole-4-carboxylic acid], the “Enzyme pIC50” value on PHD2181-417 is on record as 7.1. Take `Cc1cccc(C)c1Oc1cc2c(N(C)C)nc(-n3cc(C(=O)O)cn3)nc2cc1F` [Example 3, 1-[4-Dimethylamino-6-(2,6-dimethyl-phenoxy)-7-fluoro-quinazolin-2-yl]-1H-pyrazole-4-carboxylic acid]: the activation at 100 µM in test [1] stood at 68%. `Cc1cccc(C)c1Oc1cc2c(Nc3ccccc3Cl)nc(-n3cc(C(=O)O)cn3)nc2cc1F` [Example 7, 1-[4-(2-Chloro-phenylamino)-6-(2,6-dimethyl-phenoxy)-7-fluoro-quinazolin-2-yl]-1H-pyrazole-4-carboxylic acid]: in test [1], the activation at 100 µM worked out at 13%. As to `CCN(CC)c1nc(-n2cc(C(=O)O)cn2)nc2ccc(Cc3ccccc3)cc12` [Example 180, 1-(6-benzyl-4-(diethylamino)quinazolin-2-yl)-1H-pyrazole-4-carboxylic acid], at PHD2181-417, the “Enzyme pIC50” value came out at 7.1.
